Structures can show the parent of a compound that is named as a salt.
Experiments:
[1] = In vitro rat plasma stability assay, formation of tafamidis; format: in vitro ADME; conditions: 37° C., 2 µM test compound
Procedure: A stability assay in plasma (rat or human) was used to evaluate the ability of a compound provided herein to convert to an active TTR stabilizer. The test compound was added to plasma and incubated at 37° C. in a water bath at a concentration of 2 µM. At each time point (0, 10, 30, 60 and 120 min or 0, 60, 120, 180 and 240 min), stop solution (tolbutamide plus labetalol) was added to precipitate protein and mixed thoroughly. After centrifugation, an aliquot of supernatant was analyzed by LC-MS/MS. The percentage of formation of active agent was calculated at each time point.

[2] = In vitro rat liver S9 stability assay, formation of tafamidis; format: in vitro ADME; conditions: rat liver S9, 37° C., 1 µM test compound
Procedure: The test compound was added to liver S9 and incubated at 37° C. in a water bath at a concentration of 1 µM. At each time point (0, 5, 10, 20, 30 and 60 min), stop solution (tolbutamide plus labetalol) was added to precipitate protein and mixed thoroughly. After centrifugation, an aliquot of supernatant was analyzed by LC-MS/MS. The percentage of formation of active agent was calculated at each time point.

Row | Structure (SMILES) | Formation of tafamidis at 120 min [1] | Formation of tafamidis at 60 min [2]
1 | CN(CCOC(=O)c1ccc2nc(-c3cc(Cl)cc(Cl)c3)oc2c1)C(=O)OC(C)(C)C [Compound 8, 2-((tert-butoxycarbonyl)(methyl)amino)ethyl 2-(3,5-dichlorophenyl) benzo[d] oxazole-6-carboxylate] | D (D is ≥75%) | –
2 | Cn1cncc1COC(=O)c1ccc2nc(-c3cc(Cl)cc(Cl)c3)oc2c1 [Compound 123] | – | C (C is ≥50 to <75%)
3 | CN1CCCC1CCCOC(=O)c1ccc2nc(-c3cc(Cl)cc(Cl)c3)oc2c1 (stereo not shown) [Compound 136] | – | A (A is <25%)
4 | CN(C)[C@@H]1CC[C@H]1OC(=O)c1ccc2nc(-c3cc(Cl)cc(Cl)c3)oc2c1 [Compound 120] | – | B (B is ≥25 to <50%)
5 | CN(CCF)C(=O)c1ccc2nc(-c3cc(Cl)cc(Cl)c3)oc2c1 [Compound 173] | – | A (A is <25%)
6 | CC(Cc1cccnc1)OC(=O)c1ccc2nc(-c3cc(Cl)cc(Cl)c3)oc2c1 (stereo not shown) [Compound 168, 1-(pyridin-3-yl)propan-2-yl 2-(3,5-dichlorophenyl)benzo[d]oxazole-6-carboxylate] | – | B (B is ≥25 to <50%)
7 | CC(OC(=O)c1ccc2nc(-c3cc(Cl)cc(Cl)c3)oc2c1)c1ncccn1 (stereo not shown) [Compound 146] | – | C (C is ≥50 to <75%)
8 | O=C(OCc1ccccc1)c1ccc2nc(-c3cc(Cl)cc(Cl)c3)oc2c1 [Compound 186] | – | D (D is ≥75%)
9 | O=C(OCCCc1ncccn1)c1ccc2nc(-c3cc(Cl)cc(Cl)c3)oc2c1 [Compound 148, 3-(pyrimidin-2-yl)propyl 2-(3,5-dichlorophenyl)benzo[d]oxazole-6-carboxylate] | – | D (D is ≥75%)
10 | Cn1nccc1COC(=O)c1ccc2nc(-c3cc(Cl)cc(Cl)c3)oc2c1 [Compound 127] | – | D (D is ≥75%)
11 | [2H]C([2H])([2H])N(CCCOC(=O)c1ccc2nc(-c3cc(Cl)cc(Cl)c3)oc2c1)C([2H])([2H])[2H] [Compound 152] | – | A (A is <25%)
12 | CN(C)[C@H]1C[C@@H]1OC(=O)c1ccc2nc(-c3cc(Cl)cc(Cl)c3)oc2c1 (relative stereo) [Compound 154, trans 2-(dimethylamino)cyclopropyl 2-(3,5-dichlorophenyl)benzo-[d]oxazole-6-carboxylate hydrochloride] | – | C (C is ≥50 to <75%)
13 | Cc1ncc2n1CCC2OC(=O)c1ccc2nc(-c3cc(Cl)cc(Cl)c3)oc2c1 (stereo not shown) [Compound 159, 3-methyl-6,7-dihydro-5H-pyrrolo[1,2-c]imidazol-7-yl 2-(3,5-dichlorophenyl)benzo[d]oxazole-6-carboxylate hydrochloride] | – | D (D is ≥75%)
14 | O=C(OCCc1ccccc1)c1ccc2nc(-c3cc(Cl)cc(Cl)c3)oc2c1 [Compound 187] | – | C (C is ≥50 to <75%)
15 | O=CN1CCC(OC(=O)c2ccc3nc(-c4cc(Cl)cc(Cl)c4)oc3c2)C1 (stereo not shown) [Compound 150] | – | B (B is ≥25 to <50%)
16 | O=C(OC1CCN(C2CC2)C1)c1ccc2nc(-c3cc(Cl)cc(Cl)c3)oc2c1 (stereo not shown) [Compound 115] | – | D (D is ≥75%)
17 | COc1nc(C)c(COC(=O)c2ccc3nc(-c4cc(Cl)cc(Cl)c4)oc3c2)o1 [Compound 114, (2-methoxy-4-methyloxazol-5-yl)methyl 2-(3,5-dichlorophenyl)-benzo [d] oxazole-6-carboxylate] | – | A (A is <25%)
18 | CCN1CCCC1COC(=O)c1ccc2nc(-c3cc(Cl)cc(Cl)c3)oc2c1 (stereo not shown) [Compound 172] | – | B (B is ≥25 to <50%)
19 | O=C(OCCc1ccncc1)c1ccc2nc(-c3cc(Cl)cc(Cl)c3)oc2c1 [Compound 110] | – | C (C is ≥50 to <75%)
20 | CN(C)[C@H]1C[C@@H](OC(=O)c2ccc3nc(-c4cc(Cl)cc(Cl)c4)oc3c2)C1 [Compound 121] | – | A (A is <25%)
21 | O=C(OCc1ccncn1)c1ccc2nc(-c3cc(Cl)cc(Cl)c3)oc2c1 [Compound 131] | – | D (D is ≥75%)
22 | O=C(OC1CCN(CCF)C1)c1ccc2nc(-c3cc(Cl)cc(Cl)c3)oc2c1 (stereo not shown) [Compound 147] | – | B (B is ≥25 to <50%)
23 | O=C(OCC1CCCN1Cc1ccccc1)c1ccc2nc(-c3cc(Cl)cc(Cl)c3)oc2c1 (stereo not shown) [Compound 165] | – | C (C is ≥50 to <75%)
24 | O=C(OCCCc1cccnc1)c1ccc2nc(-c3cc(Cl)cc(Cl)c3)oc2c1 [Compound 112] | – | D (D is ≥75%)
25 | CC(=O)N1CCC(OC(=O)c2ccc3nc(-c4cc(Cl)cc(Cl)c4)oc3c2)C1 (stereo not shown) [Compound 138] | – | A (A is <25%)
26 | CN1CCC(CCOC(=O)c2ccc3nc(-c4cc(Cl)cc(Cl)c4)oc3c2)C1 (stereo not shown) [Compound 126] | – | A (A is <25%)
27 | CC[N+]1([O-])CCC(OC(=O)c2ccc3nc(-c4cc(Cl)cc(Cl)c4)oc3c2)C1 (stereo not shown) [Compound 142] | – | A (A is <25%)
28 | Cn1cc(COC(=O)c2ccc3nc(-c4cc(Cl)cc(Cl)c4)oc3c2)cn1 [Compound 128] | – | C (C is ≥50 to <75%)

Row | Structure (SMILES) | Formation of tafamidis at 120 min [1] | Formation of tafamidis at 60 min [2]
29 | C[N+]1([O-])CCC(OC(=O)c2ccc3nc(-c4cc(Cl)cc(Cl)c4)oc3c2)C1 (stereo not shown) [Compound 141, 3-((2-(3,5-dichlorophenyl)benzo[d]oxazole-6-carbonyl)oxy)-1-methylpyrrolidine 1-oxide] | – | A (A is <25%)
30 | CN(CC(F)F)C(=O)c1ccc2nc(-c3cc(Cl)cc(Cl)c3)oc2c1 [Compound 174] | – | A (A is <25%)
31 | O=C(OCCc1cccnc1)c1ccc2nc(-c3cc(Cl)cc(Cl)c3)oc2c1 [Compound 108] | – | D (D is ≥75%)
32 | O=C(OCCc1ccccn1)c1ccc2nc(-c3cc(Cl)cc(Cl)c3)oc2c1 [Compound 105] | – | D (D is ≥75%)
33 | CN(C)[C@H]1C[C@H](OC(=O)c2ccc3nc(-c4cc(Cl)cc(Cl)c4)oc3c2)C1 [Compound 125] | – | A (A is <25%)
34 | O=C(OCc1cccnc1)c1ccc2nc(-c3cc(Cl)cc(Cl)c3)oc2c1 [Compound 107] | – | D (D is ≥75%)
35 | O=C(OCCCc1ccccn1)c1ccc2nc(-c3cc(Cl)cc(Cl)c3)oc2c1 [Compound 106] | – | D (D is ≥75%)
36 | CC(Cc1ccncc1)OC(=O)c1ccc2nc(-c3cc(Cl)cc(Cl)c3)oc2c1 (stereo not shown) [Compound 169] | – | B (B is ≥25 to <50%)
37 | [2H]C([2H])([2H])N1CCC(OC(=O)c2ccc3nc(-c4cc(Cl)cc(Cl)c4)oc3c2)C1 (stereo not shown) [Compound 140] | – | A (A is <25%)
38 | CN1CCCC1CCOC(=O)c1ccc2nc(-c3cc(Cl)cc(Cl)c3)oc2c1 (stereo not shown) [Compound 122] | – | A (A is <25%)
39 | O=C(OCc1cncnc1)c1ccc2nc(-c3cc(Cl)cc(Cl)c3)oc2c1 [Compound 133] | – | C (C is ≥50 to <75%)
40 | O=C(OC1CCCC1)c1ccc2nc(-c3cc(Cl)cc(Cl)c3)oc2c1 [Compound 184] | – | B (B is ≥25 to <50%)
41 | CN1CC(OC(=O)c2ccc3nc(-c4cc(Cl)cc(Cl)c4)oc3c2)CCC1=O (stereo not shown) [Compound 162] | – | B (B is ≥25 to <50%)
42 | CN(C)[C@H]1CCC[C@H]1OC(=O)c1ccc2nc(-c3cc(Cl)cc(Cl)c3)oc2c1 [Compound 134] | – | A (A is <25%)
43 | O=C(OC1CCn2ccnc21)c1ccc2nc(-c3cc(Cl)cc(Cl)c3)oc2c1 (stereo not shown) [Compound 149] | – | D (D is ≥75%)
44 | O=C(OCc1ccnnc1)c1ccc2nc(-c3cc(Cl)cc(Cl)c3)oc2c1 [Compound 135] | – | C (C is ≥50 to <75%)
45 | O=C(OCc1cccnn1)c1ccc2nc(-c3cc(Cl)cc(Cl)c3)oc2c1 [Compound 130] | – | D (D is ≥75%)
46 | CN1CCC(CCCOC(=O)c2ccc3nc(-c4cc(Cl)cc(Cl)c4)oc3c2)C1 (stereo not shown) [Compound 137] | – | A (A is <25%)
47 | O=C(OC1CCCn2ccnc21)c1ccc2nc(-c3cc(Cl)cc(Cl)c3)oc2c1 (stereo not shown) [Compound 155, 5,6,7,8-tetrahydroimidazo[1,2-a]pyridin-8-yl 2-(3,5-dichlorophenyl)benzo[d]oxazole-6-carboxylate] | – | D (D is ≥75%)
48 | O=C(OCc1ccncc1)c1ccc2nc(-c3cc(Cl)cc(Cl)c3)oc2c1 [Compound 109] | – | C (C is ≥50 to <75%)
49 | O=C(OCCCc1ccncc1)c1ccc2nc(-c3cc(Cl)cc(Cl)c3)oc2c1 [Compound 113] | – | D (D is ≥75%)
50 | O=C(OCc1cnccn1)c1ccc2nc(-c3cc(Cl)cc(Cl)c3)oc2c1 [Compound 132] | – | D (D is ≥75%)
51 | Cn1ccc(CCCOC(=O)c2ccc3nc(-c4cc(Cl)cc(Cl)c4)oc3c2)n1 [Compound 104] | – | B (B is ≥25 to <50%)
52 | O=C(OC1CCCN(Cc2ccccc2)C1)c1ccc2nc(-c3cc(Cl)cc(Cl)c3)oc2c1 (stereo not shown) [Compound 164] | – | B (B is ≥25 to <50%)
53 | CN1CC(OC(=O)c2ccc3nc(-c4cc(Cl)cc(Cl)c4)oc3c2)C1 [Compound 118] | – | B (B is ≥25 to <50%)
54 | CN1CC(OC(=O)c2ccc3nc(-c4cc(Cl)cc(Cl)c4)oc3c2)CC(F)(F)C1 (stereo not shown) [Compound 171, 5,5-difluoro-1-methylpiperidin-3-yl 2-(3,5-dichlorophenyl)benzo[d]oxazole-6-carboxylate] | – | C (C is ≥50 to <75%)
55 | Cn1cnc(COC(=O)c2ccc3nc(-c4cc(Cl)cc(Cl)c4)oc3c2)c1 [Compound 129] | – | D (D is ≥75%)

— patent US20230287021A1, “COMPOUNDS, COMPOSITIONS AND METHODS FOR STABILIZING TRANSTHYRETIN AND INHIBITING TRANSTHYRETIN MISFOLDING” (Protego Biopharma, Inc., priority 2020, published 2023)
